These are literature values, as cited in patent US20160339123A1, “POLYBUTYLACRYLATE-BASED NANOCOMPOSITE PHOTOACOUSTIC IMAGING AGENT AND A PREPARATION METHOD THEREOF” (Wenzhou Institute of Biomaterials and Engineering, priority 2015, published 2016).

Structures are written as SMILES.

The conditions of the series: near infrared region.

For the compound `CN(C)c1ccc2nc3ccc(=[N+](C)C)cc-3sc2c1` [methylene blue], the absorption peak is recorded as around 664 nm.

In the case of `CC1(C)C(/C=C/C=C/C=C/C=C2\N(CCCCS(=O)(=O)O)c3ccc4ccccc4c3C2(C)C)=[N+](CCCCS(=O)(=O)[O-])c2ccc3ccccc3c21` [indocyanine green], the absorption peak was around 780 nm.
